How the values were obtained:
[1] = target: Pasteurella multocida PmST1 mutant D141A (Pasteurella multocida, UniProt Q15KI8, D141A); assay: α2-3-sialidase activity, Neu5Acα2-3LacβMU as substrate; type: biochemical; parameters: previously obtained mutant (Ni et al. 2006); details: apparent, MES pH 5.5, 37° C., 60 min
Description: (§1) Kinetic Assays. […] The apparent kinetic parameters were obtained by fitting the experimental data (the average values of duplicate assay results) into the Michaelis-Menten equation using Grafit 5.0.
(§2) All the sialidase and α2-3-sialyltransferase assays were performed in an HPLC system. Reactions were stopped by adding 10 μL of ethanol. After necessary dilutions were performed to adjust the concentrations of the fluorescent-labeled compounds, the samples were then kept on ice until aliquots of 8 μL were injected and analyzed by a Shimadzu LC-6AD system equipped with a membrane on-line degasser, a temperature control unit, and a fluorescence detector (Shimadzu RF-10AXL). A reverse-phase Premier C18 column (250×4.6 mm i.d., 5 μm particle size, Shimadzu) protected with a C18 guard column cartridge was used. The mobile phase was 25% acetonitrile. The fluorescent compounds LacβMU and Neu5Acα2-3LacβMU were detected by excitation at 325 nm and emission at 372 nm.

[2] = target: Pasteurella multocida PmST1 mutant H311A (Pasteurella multocida, UniProt Q15KI8, H311A); assay: as above; type: biochemical; parameters: previously obtained mutant (Ni et al. 2006); details: result in words
Description: as §1, §2

[3] = target: Pasteurella multocida PmST1 mutant M144H of SEQ ID NO: 13 (M120H of Δ24PmST1, SEQ ID NO: 5) (Pasteurella multocida, UniProt Q15KI8, M144H); assay: as above; type: biochemical; details: apparent, MES pH 5.5, 37° C., 15 min
Description: (§3) Site-directed mutagenesis, expression and purification of PmST1 mutants. Site-directed mutagenesis was performed using the QuikChange multi-site-directed mutagenesis kit from Stratagene according to the manufacturer's protocol. The primers used were 5′-[…]-3′ (SEQ ID NO:35) for M144D; 5′-[…]a[…] -3′ (SEQ ID NO:36) for M144H; 5′-[…]-3′ (SEQ ID NO:37) for A35D; and 5′-[…]-3′ (SEQ ID NO:38) for A35H. The expression and purification of the mutants were performed as previously described for the WT PmST1 .
(§4) Kinetics of the α2-3-sialidase activity of PmST1 mutants. The reactions were performed in duplicate in a total volume of 10 μL at 37° C. for 60 min (M144D) or 15 min (M144H) in MES buffer (100 mM, pH 5.5) containing Neu5Acα2-3LacβMU (0.4, 1, 2, 4, 10, 20, 40 and 60 mM) and an enzyme (M144H, 1.36 mg mL^−1 or M144D, 1.05 mg mL^−1). Sample treatment after the reaction and analysis were carried out by HPLC similar to that described above for the α2-3-sialyltransferase assays.

[4] = target: Pasteurella multocida PmST1 mutant M144D of SEQ ID NO: 13 (M120D of Δ24PmST1, SEQ ID NO: 3) (Pasteurella multocida, UniProt Q15KI8, M144D); assay: as above; type: biochemical; details: apparent, MES pH 5.5, 37° C., 60 min
Description: as §3, §4

[5] = target: Pasteurella multocida α2-3-sialyltransferase 1 (PmST1), wild type (WT), SEQ ID NO: 13 (Pasteurella multocida, UniProt Q15KI8); details: apparent, α2-3-sialidase; cited from earlier work
[6] = target: Pasteurella multocida PmST1 double mutant E271F/R313Y of SEQ ID NO: 13 (E247F/R289Y of Δ24PmST1, SEQ ID NO: 11) (Pasteurella multocida, UniProt Q15KI8, E271F/R313Y); assay: α2-3-sialidase activity, Neu5Acα2-3LacβMU as substrate; type: biochemical; details: apparent, MES pH 5.5, 37° C., 20 min
Description: (§5) Site-directed mutagenesis. Site-directed mutagenesis was carried out using the QuikChange multi-site-directed mutagenesis kit from Stratagene according to the manufacturer's protocol. The primers used were 5′-[…] -3′ (SEQ ID NO:32) for E271F and 5′-[…]-3′ (SEQ ID NO:33) for R313Y. The sites of mutations are underlined.
(§6) Protein Expression and Purification. The plasmids containing the mutant genes were transformed into E. coli BL21 (DE3). The E. coli cells were cultured in LB-rich media (10 g L^−1 tryptone, 5 g L^−1 yeast extract, and 10 g L^−1 NaCl) supplemented with ampicillin (100 μg mL^−1). Overexpression of the mutant proteins was achieved by adding 0.1 mM of isopropyl-1-thio-β-D-galactopyranoside (IPTG) to the E. coli culture when its OD600 nm reached 0.8. The incubation of the induced culture was performed at 37° C. for 3 h with vigorous shaking at 250 rpm in a C25KC incubator shaker (New Brunswick Scientific, Edison, N.J.).
(§7) His6 (SEQ ID NO:34) tagged mutant proteins were purified from the cell lysate. To obtain the cell lysate, the cell pellet harvested by centrifugation at 4000 rpm for 2 h was resuspended in 20 mL (for cells obtained from one liter culture) of lysis buffer (pH 8.0, 100 mM Tris-HCl containing 0.1% Triton X-100). To lyse the cells, lysozyme (50 μg mL^−1) and DNaseI (3 μg mL^−1) were then added to the resuspended cells followed by shaking at 37° C. for 60 min. The cell lysate was obtained as the supernatant after centrifugation at 11,000 rpm for 20 min. […]
as §2, with “Reactions were stopped by adding 10 μL of ethanol.” left out, “A reverse-phase Premier C18 column (250×4.6 mm i.d., 5 μm particle size, Shimadzu) protected with a C18 guard column cartridge was used. The mobile phase was 25% acetonitrile.” left out

[7] = target: Pasteurella multocida PmST1 mutant R313Y of SEQ ID NO: 13 (R289Y of Δ24PmST1, SEQ ID NO: 9) (Pasteurella multocida, UniProt Q15KI8, R313Y); assay: as above; type: biochemical; details: apparent, MES pH 5.5, 37° C., 25 min
Description: as §5, §6, §7
as §2, with “Reactions were stopped by adding 10 μL of ethanol.” left out, “A reverse-phase Premier C18 column (250×4.6 mm i.d., 5 μm particle size, Shimadzu) protected with a C18 guard column cartridge was used. The mobile phase was 25% acetonitrile.” left out

[8] = target: Pasteurella multocida PmST1 mutant E271F of SEQ ID NO: 13 (E247F of Δ24PmST1, SEQ ID NO: 7) (Pasteurella multocida, UniProt Q15KI8, E271F); assay: as above; type: biochemical; details: apparent, MES pH 5.5, 37° C., 1 min
Description: as §5, §6, §7
as §2, with “Reactions were stopped by adding 10 μL of ethanol.” left out, “A reverse-phase Premier C18 column (250×4.6 mm i.d., 5 μm particle size, Shimadzu) protected with a C18 guard column cartridge was used. The mobile phase was 25% acetonitrile.” left out

With `CC(=O)N[C@H]1[C@H]([C@H](O)[C@H](O)CO)O[C@@](O[C@H]2[C@@H](O)[C@@H](CO)O[C@@H](O[C@H]3[C@H](O)[C@@H](O)[C@H](Oc4ccc5c(C)cc(=O)oc5c4)O[C@@H]3CO)[C@@H]2O)(C(=O)O)C[C@@H]1O` [Neu5Acα2-3LacβMU] the kcat [1] was “(1.9 ± 0.1) × 10^−2 s^−1”, the “kinetics of the α2-3-sialidase activity” value [2] was “too low to obtain the kinetic data” and the kcat [3] was “(2.7 ± 0.2) × 10^−2 s^−1”. For the same compound, the kcat [4] was “(3.5 ± 0.1) × 10^−2 s^−1”, the Km [5] was 24 mM and the kcat [6] was 0.83 ± 0.08 s⁻¹. The kcat [7] was 0.18 ± 0.01 s⁻¹ and the kcat [8] was 0.92 ± 0.04 s⁻¹.

Reference: patent US9255257B2, “PmST1 mutants for chemoenzymatic synthesis of sialyl lewis X compounds” (THE REGENTS OF THE UNIVERSITY OF CALIFORNIA, priority 2011, dated 2016)
